Test results: patent publication US20110098180A1, “Herbicide-Resistant Plants, And Polynucleotides And Methods For Providing Same” (United States Department of Agriculture, priority 2002, published 2011)

Tests used:
Type in all cases: biochemical, Hydrilla verticillata
[1] = tested on: Hydrilla PDS Arg^304 → Threonine; assay: Fluridone enzyme inhibition assay, non-His-tagged PDS (Table 1); settings: relative to Arginine
Protocol: (§1) The expression constructs in Table 1 were derived from an original clone of the susceptible PDS gene from Hydrilla and then the Arg^304 was mutated to the listed amino acid. Expression was under the control of the lac promoter […] with the initiation codon of the LacZalpha-ccdB gene in the pCR4-TOPO vector (Invitrogen Inc., CA, Cat. #K4575-01).
(§2) All mutagenesis was performed, unless stated otherwise, using the TOPO-vector containing the wildtype (H4) PDS-sequence, which was extracted from an overnight culture with the Qiagen Plasmid Prep Kit as described above. The amount of the extracted plasmid was diluted to 10 ng/μl and used as template in a mutagenesis-procedure using the QuikChange Site-directed Mutagenesis Kit (Stratagene, Calif., #200518). The design of the mutagenesis-primers was conducted according to the manufacturers protocol to enable the specific change of Arg^304-codon to code for the desired amino acid. Primers (purchased from MWG-Biotech) and their introduced amino acid change are listed below with the changed codon underlined:
(§3) The reactions were performed according to the manufacturers protocol. Reactions were set up in MicroAmp-tubes on ice with 38 μl ddH2O, 5 μl 10× reaction buffer, 2 μl plasmid (10 ng/μl), 1.25 μl forward-mutagenesis primer (100 ng/μl), 1.25 μl of reverse mutagenesis primer (100 ng/μl), 1 μl dNTP-mix and 1 μl PfuTurboDNA polymerase (2.5 U/μl). The reactions were placed in a PE 9700 thermal cycler and heated to 95° C. for 30 sec followed by 12 rounds at 95° C. for 30 sec, 55° C. for 1 min and 68° C. for 12 min. The PCR was followed by a DpnI-digestion and transformation in XL1-Blue supercompetent cells as described in the manual. 4-6 resulting colonies were grown overnight in LB-medium with kanamycin and plasmid DNA was isolated as described above. The plasmid was used as template for sequencing with M13 and internal PDS-primers as described above on a LiCOR-system. Sequences were assembled and analyzed using Seqman. Introduced mutations were identified and plasmids carrying the desired mutation(s) were transferred into competent TOP10-cells, using the transformation protocol from the TOPO TA Cloning Kit. Resulting colonies were grown overnight in Wu-broth with kanamycin, aliquoted and stored at −80° C. until further use. 1 ml of Wu-cultures was used to start 1-L LB-cultures with kanamycin as described before, to express active PDS-enzyme for testing as described.
(§4) Phytoene desaturase activity and its inhibition by herbicides was determined using an in vitro system using components derived from the in vivo production of phytoene and phytoene desaturase proteins. All mutations described in Examples 3 and 4 were tested. […] The clones were used for the heterologous expression of Hydrilla-PDS-enzyme. In particular, bacterial cultures were grown from single colonies overnight in Wu-broth (6.27 g/L K2HPO4, 1.8 g/L KH2PO4, 0.5 g/L Na-citrate, 0.9 g/L (NH4)2SO4, 10 g/L tryptone, 5 g/L yeast extract, 10 g/L NaCl, 44 ml/L glycerol, 0.1 mM MgSO4, pH 7.2) with kanamycin. 1-mL was aliquoted in centrifuge tube and stored at −80° C. For expression, 1 L LB-medium with kanamycin was inoculated with 1-mL Wu-culture and grown for 24 h at 37° C. to stationary phase with shaking at 200 rpm. The cells were collected by centrifugation at 2000×g. All of the following steps were done at 4° C. unless otherwise noted. Active soluble PDS enzyme was extracted by lysing the transformed E. coli cells using a French Press at 20,000 psi in assay buffer consisting of 100 mM Tris-HCl, pH 7.2, 10 mM magnesium-chloride, 0.1 mM NADP, 0.1 mM FAD, 10 mM cysteine, 5 mM DTT, 1 mM aminocaproic acid, and 1 μg/ml leupeptin. The soluble fraction containing PDS activity was obtained by centrifugation for 10 min at 1200×g. After 24 h they were centrifuged down and used in PDS enzyme activity assays as described below.

[2] = tested on: Hydrilla PDS Arg^304 → Glycine; assay: as above; settings: relative to Arginine
Protocol: as §1, §2, §3, §4

[3] = tested on: Hydrilla PDS Arg^304 → Asparagine; assay: as above; settings: relative to Arginine
Protocol: as §1, §2, §3, §4

[4] = tested on: Hydrilla PDS Arg^304 → Glutamic acid; assay: as above; settings: relative to Arginine
Protocol: as §1, §2, §3, §4

[5] = tested on: Hydrilla PDS Arg^304 → Valine; assay: as above; settings: relative to Arginine
Protocol: as §1, §2, §3, §4

[6] = tested on: Hydrilla PDS Arg^304 → Glutamine; assay: as above; settings: relative to Arginine
Protocol: as §1, §2, §3, §4

[7] = tested on: Hydrilla PDS Arg^304 → Alanine; assay: as above; settings: relative to Arginine
Protocol: as §1, §2, §3, §4

[8] = tested on: Hydrilla PDS Arg^304 → Methionine; assay: as above; settings: relative to Arginine
Protocol: as §1, §2, §3, §4

[9] = tested on: Hydrilla PDS Val^509 → Gly; assay: Fluridone enzyme inhibition assay, other substitutions (Table 3)
Protocol: (§5) To explore whether mutations at positions other than 304 of the hydrilla PDS enzyme and corresponding positions of other plant PDS enzymes also confer herbicide resistance, mutations discovered in Synechococcus strain PCC7942 (Leu^320→Pro; Val^403→Gly; Leu^436→Arg) were introduced into the hydrilla PDS sequence at the corresponding locations, and the resulting PDS enzymes tested for resistance.
as §4
(§6) Generally, PDS protein fractions prepared as described above (Non-His-tagged and His-tagged) were mixed with a soluble fraction from phytoene-producing E. coli cells. […]

[10] = tested on: Hydrilla PDS Leu^542 → Arg; assay: as above
Protocol: as §5, §4, §6

[11] = tested on: Hydrilla PDS Leu^425 → Pro; assay: as above
Protocol: as §5, §4, §6

Fluridone
R/S [1]: 40
R/S [2]: 3.2
R/S [3]: 3.2
R/S [4]: 1.5
R/S [5]: 11
R/S [6]: 19
R/S [7]: 22.5
R/S [8]: 11.5
R/S [9]: 14.5
R/S [10]: 4.5
R/S [11]: 1.6
